Experimental data from patent US12503436B2, “Compounds and compositions for treating conditions associated with STING activity” (NOVARTIS PHARMA AG, priority 2021, dated 2025).

These compounds were tested against STING (Homo sapiens, UniProt Q86WV6, G230A/H232R/R293Q/R71H) (assay: STING reporter assay in THP1-Dual KO-IFNAR2 cells (2′3′cGAMP stimulation, luciferase reporter)). Details: 15 μM 2′3′cGAMP stimulation, 24 h, read-out: Pharmaron, THP1_IFNAR2 STING 24 h Luci Normalized: GeoMean EC50.
Sequence of STING (Q86WV6 whole entry R71H/G230A/H232R/R293Q): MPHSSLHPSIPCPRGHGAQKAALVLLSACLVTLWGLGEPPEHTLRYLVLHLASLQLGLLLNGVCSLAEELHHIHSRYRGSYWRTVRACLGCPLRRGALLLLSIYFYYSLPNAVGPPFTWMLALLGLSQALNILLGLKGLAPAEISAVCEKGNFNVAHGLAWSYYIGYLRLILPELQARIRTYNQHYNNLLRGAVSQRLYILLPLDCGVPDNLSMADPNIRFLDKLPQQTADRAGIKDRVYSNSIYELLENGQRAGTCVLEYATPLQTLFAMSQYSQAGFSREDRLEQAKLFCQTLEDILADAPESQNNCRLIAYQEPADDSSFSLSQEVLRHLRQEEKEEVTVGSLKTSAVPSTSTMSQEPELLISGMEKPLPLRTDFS
Assay type: cell-based
How it was run: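 THP1-Dual KO-IFNAR2 cells (2×10E6 cells/mL) with compounds at 0.0017-100 μM final, stimulated with 15 μM final 2′3′cGAMP delivered by Lipofectamine 2000; 24 h at 37 °C. Luciferase in supernatant read with QUANTI-Luc Plus; EC50 derived from luminescence.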
With `C[C@]1(C(=O)Nc2c[nH]c3ccc(OCC[C@@H]4C[C@@H]5CN(CC(F)(F)F)C[C@@H]5C4)cc23)C[C@H](CO)C1` [Compound 512, (1r,3R)-3-(hydroxymethyl)-1-methyl-N-(5-(2-((3aR,5r,6aS)-2-(2,2,2-trifluoroethyl)octahydrocyclopenta[c]pyrrol-5-yl)ethoxy)-1H-indol-3-yl)cyclobutane-1-carboxamide] the EC50 was 0.2 to 1 µM. Work on `O=C(Nc1c[nH]c2ccc(OCc3ccc(C(F)(F)F)cc3)cc12)C1CC1(F)Cl` (stereo not shown) [Compound 318, 2-chloro-2-fluoro-N-(5-((4-(trifluoromethyl)benzyl)oxy)-1H-indol-3-yl)cyclopropane-1-carboxamide] yielded an EC50 of 0.2 to 1 µM. `COCC1(C(=O)Nc2c[nH]c3ccc(OCCc4ccc(C(F)(F)F)cc4)cc23)CC1` [Compound 204, 1-(methoxymethyl)-N-(5-(4-(trifluoromethyl)phenethoxy)-1H-indol-3-yl)cyclopropane-1-carboxamide] was tested, and the EC50 was 0.04 to 0.2 µM. Work on `CC(=O)Nc1c[nH]c2cc(F)c(CCOc3ccc(C(F)(F)F)cc3)c(F)c12` [Compound 375, N-(4,6-difluoro-5-(2-(4-(trifluoromethyl)phenoxy)ethyl)-1H-indol-3-yl)acetamide] yielded an EC50 of 1 to 5 µM. `O=C(Nc1c[nH]c2ccc(O[C@H]3C[C@@H](c4ccc(C(F)(F)F)cc4)C3)cc12)C1CC(F)C1` (stereo partly drawn) [Compound 576, 3-fluoro-N-(5-(cis-3-(4-(trifluoromethyl)phenyl)cyclobutoxy)-1H-indol-3-yl)cyclobutane-1-carboxamide] gave an EC50 of 0.04 to 0.2 µM. In the case of `CC(=O)Nc1c[nH]c2ccc(OC[C@@H]3[C@H]4CN(CC(F)(F)F)C[C@@H]34)cc12` [Compound 120, N-(5-(((1R,5S,6r)-3-(2,2,2-trifluoroethyl)-3-azabicyclo[3.1.0]hexan-6-yl)methoxy)-1H-indol-3-yl)acetamide], the EC50 is reported as 5 to 100 µM. In the case of `CC1OC(C)C1C(=O)Nc1c[nH]c2ccc(OCc3ccc(C(F)(F)F)cc3)cc12` (stereo not shown) [Compound 428, 2,4-dimethyl-N-(5-((4-(trifluoromethyl)benzyl)oxy)-1H-indol-3-yl)oxetane-3-carboxamide], the EC50 is reported as 0.2 to 1 µM. `CC(=O)Nc1c[nH]c2ccc(CCOc3ccc(Cl)cc3C(F)(F)F)cc12` [Compound 450, N-(5-{2-[4-chloro-2-(trifluoromethyl)phenoxy]ethyl}-1H-indol-3-yl)acetamide] was tested, and the EC50 was 0.2 to 1 µM. Work on “3-(hydroxymethyl)-N-(5-(2-((3aR,5r,6aS)-2-(2,2,2-trifluoroethyl)octahydrocyclopenta[c]pyrrol-5-yl)ethoxy)-1H-indol-3-yl)cyclobutane-1-carboxamide [Compound 343]” yielded an EC50 of 0.2 to 1 µM. `CC(=O)Nc1c[nH]c2ccc(OCC(F)C3CCN(CC(F)(F)F)CC3)cc12` (stereo not shown) [Compound 105, N-(5-(2-fluoro-2-(1-(2,2,2-trifluoroethyl)piperidin-4-yl)ethoxy)-1H-indol-3-yl)acetamide] was tested, and the EC50 was 1 to 5 µM. With `O=C(Nc1c[nH]c2ccc(O[C@H]3C[C@@H](c4ccc(C(F)(F)F)cc4)C3)cc12)[C@H]1C[C@@H](O)C1` [Compound 337, cis-3-hydroxy-N-(5-(cis-3-(4-(trifluoromethyl)phenyl)cyclobutoxy)-1H-indol-3-yl)cyclobutane-1-carboxamide] the EC50 was 0.2 to 1 µM. In the case of `CC(=O)Nc1c[nH]c2ccc(CCOc3cnc4c(C(F)(F)F)cccc4c3)cc12` [Compound 555, N-(5-(2-((8-(trifluoromethyl)quinolin-3-yl)oxy)ethyl)-1H-indol-3-yl)acetamide], the EC50 is reported as 1 to 5 µM. For `O=C(Nc1c[nH]c2ccc(CCOc3ccc(C(F)(F)F)cc3)cc12)C1COC1` [Compound 164, N-(5-(2-(4-(trifluoromethyl)phenoxy)ethyl)-1H-indol-3-yl)oxetane-3-carboxamide], the EC50 was 0.2 to 1 µM. Work on `C[C@H]1C[C@@H](C(=O)Nc2c[nH]c3ccc(O[C@H]4C[C@@H](c5ccc(C(F)(F)F)cc5)C4)cc23)C1` [Compound 335, cis-3-methyl-N-(5-(cis-3-(4-(trifluoromethyl)phenyl)cyclobutoxy)-1H-indol-3-yl)cyclobutane-1-carboxamide] yielded an EC50 of 0.2 to 1 µM. Compound `O=C(Nc1c[nH]c2ccc(O[C@H]3C[C@@H](c4ccc(C(F)(F)F)cc4)C3)cc12)C1CNC1` [Compound 537, N-(5-(cis-3-(4-(trifluoromethyl)phenyl)cyclobutoxy)-1H-indol-3-yl)azetidine-3-carboxamide] has an EC50 of 5 to 100 µM. For `CC1(C(=O)Nc2c[nH]c3ccc(CCOc4ccc(C(F)(F)F)cc4)cc23)COC1` [Compound 165, 3-methyl-N-(5-(2-(4-(trifluoromethyl)phenoxy)ethyl)-1H-indol-3-yl)oxetane-3-carboxamide], the EC50 was 0.04 to 0.2 µM. `CCC(=O)Nc1c[nH]c2ccc(CCOc3ccc(C)cc3)cc12` [Compound 168, N-(5-(2-(p-tolyloxy)ethyl)-1H-indol-3-yl)propionamide] was tested, and the EC50 was 0.2 to 1 µM. In the case of `O=C(Nc1c[nH]c2ccc(OCc3ccc(C(F)(F)F)cc3)cc12)C1CC(O)C1` (stereo not shown) [Compound 329, 3-hydroxy-N-(5-((4-(trifluoromethyl)benzyl)oxy)-1H-indol-3-yl)cyclobutane-1-carboxamide], the EC50 is reported as 0.2 to 1 µM. `C[C@]1(C(=O)Nc2c[nH]c3ccc(OCCc4ccc(C(F)(F)F)cc4)cc23)C[C@H](CO)C1` [Compound 530, trans-3-(hydroxymethyl)-1-methyl-N-(5-(4-(trifluoromethyl)phenethoxy)-1H-indol-3-yl)cyclobutane-1-carboxamide] showed an EC50 of 0.04 to 0.2 µM. Compound `CC(=O)Nc1c[nH]c2ccc(CC[C@@H]3C[C@@H]4CN(CC(F)(F)F)C[C@@H]4C3)cc12` [Compound 457, N-(5-(2-((3aR,5r,6aS)-2-(2,2,2-trifluoroethyl)octahydrocyclopenta[c]pyrrol-5-yl)ethyl)-1H-indol-3-yl)acetamide] has an EC50 of 0.2 to 1 µM. `O=C(Nc1c[nH]c2ccc(OCC[C@@H]3C[C@@H]4CN(CC(F)(F)F)C[C@@H]4C3)cc12)C1CC1(F)F` (stereo partly drawn) [Compound 307, 2,2-difluoro-N-(5-(2-((3aR,5r,6aS)-2-(2,2,2-trifluoroethyl)octahydrocyclopenta[c]pyrrol-5-yl)ethoxy)-1H-indol-3-yl)cyclopropane-1-carboxamide] was tested, and the EC50 was 0.2 to 1 µM. `CC(=O)Nc1c[nH]c2ccc(OCC3Cc4cnn(CC(F)(F)F)c4C3)cc12` (stereo not shown) [Compound 444, N-(5-((1-(2,2,2-trifluoroethyl)-1,4,5,6-tetrahydrocyclopenta[c]pyrazol-5-yl)methoxy)-1H-indol-3-yl)acetamide] gave an EC50 of 5 to 100 µM. Work on `CC1(C(=O)Nc2c[nH]c3ccc(CC(O)Cc4ccc(C(F)(F)F)cn4)cc23)CC1` (stereo not shown) [Compound 540, N-(5-(2-hydroxy-3-(5-(trifluoromethyl)pyridin-2-yl)propyl)-1H-indol-3-yl)-1-methylcyclopropane-1-carboxamide] yielded an EC50 of 1 to 5 µM. `CC1(C(=O)Nc2c[nH]c3ccc(OCc4ccc(C(F)(F)F)cc4)cc23)CCC1` [Compound 294, 1-methyl-N-(5-((4-(trifluoromethyl)benzyl)oxy)-1H-indol-3-yl)cyclobutane-1-carboxamide] gave an EC50 of 0.04 to 0.2 µM. Compound `COC1CC(C(=O)Nc2c[nH]c3ccc(CCOc4ccc(C(F)(F)F)cc4)cc23)C1` (stereo not shown) [Compound 297, 3-methoxy-N-(5-(2-(4-(trifluoromethyl)phenoxy)ethyl)-1H-indol-3-yl)cyclobutane-1-carboxamide] has an EC50 of 0.2 to 1 µM. `CC(=O)Nc1c[nH]c2c(F)cc(OCCC3CCN(CC(F)(F)F)CC3)cc12` [Compound 277, N-(7-fluoro-5-(2-(1-(2,2,2-trifluoroethyl)piperidin-4-yl)ethoxy)-1H-indol-3-yl)acetamide] was tested, and the EC50 was 5 to 100 µM. In the case of `O=C(Nc1c[nH]c2ccc(O[C@H]3C[C@H](c4ccc(C(F)(F)F)nc4)C3)cc12)[C@H]1C[C@@H](CO)C1` [Compound 552, cis-3-(hydroxymethyl)-N-(5-(trans-3-(6-(trifluoromethyl)pyridin-3-yl)cyclobutoxy)-1H-indol-3-yl)cyclobutane-1-carboxamide], the EC50 is reported as 0.2 to 1 µM. `O=C(Nc1c[nH]c2ccc(O[C@H]3C[C@@H](c4ccc(C(F)(F)F)cc4)C3)cc12)C1(F)CC1` [Compound 302, 1-fluoro-N-(5-(cis-3-(4-(trifluoromethyl)phenyl)cyclobutoxy)-1H-indol-3-yl)cyclopropane-1-carboxamide] was tested, and the EC50 was 0.2 to 1 µM. Work on `N#CC1CCC1C(=O)Nc1c[nH]c2ccc(O[C@H]3C[C@@H](c4ccc(C(F)(F)F)cc4)C3)cc12` (stereo partly drawn) [Compound 355, 2-cyano-N-(5-(cis-3-(4-(trifluoromethyl)phenyl)cyclobutoxy)-1H-indol-3-yl)cyclobutane-1-carboxamide] yielded an EC50 of 0.2 to 1 µM. With `CC1(C(=O)Nc2c[nH]c3ccc(CCOc4ccc(C(F)(F)F)cc4)cc23)CC1` [Compound 399, 1-methyl-N-(5-(2-(4-(trifluoromethyl)phenoxy)ethyl)-1H-indol-3-yl)cyclopropane-1-carboxamide] the EC50 was 0.2 to 1 µM. Compound `CC(C)(C)OC(=O)N1CCC(CCOc2ccc3[nH]cc(NC(=O)C4CCC4)c3c2)CC1` [Compound 140, tert-butyl 4-(2-((3-(cyclobutanecarboxamido)-1H-indol-5-yl)oxy)ethyl)piperidine-1-carboxylate] has an EC50 of 0.2 to 1 µM. `CC(=O)Nc1c[nH]c2ccc(CCOc3ccc(CC(F)(F)F)cc3)cc12` [Compound 442, N-(5-{2-[4-(2,2,2-trifluoroethyl)phenoxy]ethyl}-1H-indol-3-yl)acetamide] showed an EC50 of 0.04 to 0.2 µM. In the case of `C[C@]1(C(=O)Nc2c[nH]c3ccc(OCc4ccc(C(F)(F)F)cc4)cc23)C[C@H](O)C1` [Compound 415, trans-3-hydroxy-1-methyl-N-(5-((4-(trifluoromethyl)benzyl)oxy)-1H-indol-3-yl)cyclobutane-1-carboxamide], the EC50 is reported as 1 to 5 µM. For `CC(=O)Nc1c[nH]c2ccc(O[C@H]3C[C@@H](c4ccc(C(F)(F)F)nc4)C3)cc12` [Compound 455, N-(5-(cis-3-(6-(trifluoromethyl)pyridin-3-yl)cyclobutoxy)-1H-indol-3-yl)acetamide], the EC50 was 0.2 to 1 µM.
